Several values for one entry are separate records, joined by “and”; a condition that tells them apart may be missing. Equal values may be shown once.

The subject of data set [1] is fat cells (isolated adipose cells). The experiment in a line: In Vitro Fat Cell Bioassay (insulin-like activity, conversion of glucose-1-14C to 14CO2). It counts as cell-based. The conditions noted are these: for 14-CO2: average CPM, baseline not subtracted, repeat lines are separate runs. The protocol: It is known that fat cells incubated in Krebs-Ringer bicarbonate buffer containing glucose and albumin convert glucose-1-^14 C to ^14 CO2. […] This is the basis of the bioassay of insulin-like activity described in J. Gliemann, Diabetes, 14, 643(1965). The method for preparing the necessary isolated adipose cells retaining their metabolic activity is described in M. Rodbell, J. Biol. Chem., 239, 375(1964).
The compounds of the present invention have been bioassayed for their insulin-like activity essentially by the process set forth in Gliemann and Rodbell.
*All compounds were tested at 100 μg./ml.
**Insulin standard at 25 μu/ml.
1. An average CPM value is taken of each group.
2. The average value of Baseline (Buffer control) is subtracted from the
average of each of the remaining groups.
3. In order to obtain Relative Activity percentage, the average CPM value
for each compound (minus the average CPM value of the control group) is
divided by the average CPM value in the insulin standard (minus the
average CPM value of the controls), and the resultant value multiplied by
100 to obtain % activity.

The test system is the same in data set [2]. The conditions noted are these: fat cells in Krebs-Ringer bicarbonate buffer containing glucose and albumin; known from Gliemann; cited from earlier work.
[3] abbreviates: compounds tested at 100 μg./ml, baseline subtracted, relative to insulin standard 25 μu/ml = 100%.

As to `NCCCCCCO[C@H]1O[C@H](CO)[C@@H](O)[C@H](O)[C@@H]1O` [1-(6-aminohexyl) α-D-mannopyranoside, 1-(6-aminohexyl)-α-D-mannopyranoside], the 14-CO2 in data set [1] (compounds tested at 100 μg./ml) stood at 3330 cpm. This compound displayed an activity at 100 µg/mL in data set [1] (setting [3]) of 28%.

As for `NCCCCCCS[C@@H]1O[C@H](CO)[C@@H](O)[C@H](O)[C@@H]1O` [1-[(6-aminohexyl)thio]-1-deoxy-β-D-mannopyranoside], the 14-CO2 in data set [1] (compounds tested at 100 μg./ml) is 4898 cpm and 5177 cpm. In data set [1] (setting [3]), the “Relative Activity %” value turned out to be 78% and the activity at 100 µg/mL came to 93%.

In the case of Insulin: Insulin standard at 25 μu/ml, the “Relative Activity %” value in data set [1] (Insulin standard at 25 μu/ml, reference set to 100%) was 100%. Further, in data set [2], the “stimulation of 14CO2 production” value is given as “stimulation of severalfold”.

Take `NCCCCCCC(=O)N[C@@H]1O[C@H](CO)[C@@H](O)[C@H](O)[C@@H]1O` [1-[(7-aminoheptanoyl)amino]-1-deoxy-β-D-mannopyranoside]: the 14-CO2 in data set [1] (compounds tested at 100 μg./ml) was 1952 cpm. Moreover, the activity at 100 µg/mL in data set [1] (setting [3]) was found to be 26%.

The record behind these values is US4228274A, “1-Substituted glycopyranosides” (Merck & Co., Inc., priority 1978, dated 1980).
